Assay results as given in ChEMBL document CHEMBL6103593, “Design of Selective BRD4 Inhibitors for the Treatment of Autosomal Dominant Polycystic Kidney Disease” (J Med Chem, 2025).

Experiments:
[1] = target: T1, Bromodomain-containing protein 2 (Homo sapiens, UniProt P25440); experiment: Inhibition of BRD2 bromodomain 1 (67 to 200 residues) (unknown origin) extracted from Escherichia coli […] codon plus RIL cells incubated for 4 hrs by fluorescence anisotropy
[2] = target: T1, Bromodomain-containing protein 2; experiment: Inhibition of BRD2 bromodomain 2 (348 to 455 residues) (unknown origin) extracted from Escherichia coli […] codon plus RIL cells incubated for 4 hrs by fluorescence anisotropy
[3] = target: Histone acetyltransferase p300 (Homo sapiens, UniProt Q09472); experiment: Inhibition of EP300 (1039 to 1161 residues) (unknown origin) extracted from Escherichia coli […] codon plus RIL cells incubated for 4 hrs by fluorescence anisotropy
Chain of Histone acetyltransferase p300 (Q09472 whole entry, the tested form may be a part): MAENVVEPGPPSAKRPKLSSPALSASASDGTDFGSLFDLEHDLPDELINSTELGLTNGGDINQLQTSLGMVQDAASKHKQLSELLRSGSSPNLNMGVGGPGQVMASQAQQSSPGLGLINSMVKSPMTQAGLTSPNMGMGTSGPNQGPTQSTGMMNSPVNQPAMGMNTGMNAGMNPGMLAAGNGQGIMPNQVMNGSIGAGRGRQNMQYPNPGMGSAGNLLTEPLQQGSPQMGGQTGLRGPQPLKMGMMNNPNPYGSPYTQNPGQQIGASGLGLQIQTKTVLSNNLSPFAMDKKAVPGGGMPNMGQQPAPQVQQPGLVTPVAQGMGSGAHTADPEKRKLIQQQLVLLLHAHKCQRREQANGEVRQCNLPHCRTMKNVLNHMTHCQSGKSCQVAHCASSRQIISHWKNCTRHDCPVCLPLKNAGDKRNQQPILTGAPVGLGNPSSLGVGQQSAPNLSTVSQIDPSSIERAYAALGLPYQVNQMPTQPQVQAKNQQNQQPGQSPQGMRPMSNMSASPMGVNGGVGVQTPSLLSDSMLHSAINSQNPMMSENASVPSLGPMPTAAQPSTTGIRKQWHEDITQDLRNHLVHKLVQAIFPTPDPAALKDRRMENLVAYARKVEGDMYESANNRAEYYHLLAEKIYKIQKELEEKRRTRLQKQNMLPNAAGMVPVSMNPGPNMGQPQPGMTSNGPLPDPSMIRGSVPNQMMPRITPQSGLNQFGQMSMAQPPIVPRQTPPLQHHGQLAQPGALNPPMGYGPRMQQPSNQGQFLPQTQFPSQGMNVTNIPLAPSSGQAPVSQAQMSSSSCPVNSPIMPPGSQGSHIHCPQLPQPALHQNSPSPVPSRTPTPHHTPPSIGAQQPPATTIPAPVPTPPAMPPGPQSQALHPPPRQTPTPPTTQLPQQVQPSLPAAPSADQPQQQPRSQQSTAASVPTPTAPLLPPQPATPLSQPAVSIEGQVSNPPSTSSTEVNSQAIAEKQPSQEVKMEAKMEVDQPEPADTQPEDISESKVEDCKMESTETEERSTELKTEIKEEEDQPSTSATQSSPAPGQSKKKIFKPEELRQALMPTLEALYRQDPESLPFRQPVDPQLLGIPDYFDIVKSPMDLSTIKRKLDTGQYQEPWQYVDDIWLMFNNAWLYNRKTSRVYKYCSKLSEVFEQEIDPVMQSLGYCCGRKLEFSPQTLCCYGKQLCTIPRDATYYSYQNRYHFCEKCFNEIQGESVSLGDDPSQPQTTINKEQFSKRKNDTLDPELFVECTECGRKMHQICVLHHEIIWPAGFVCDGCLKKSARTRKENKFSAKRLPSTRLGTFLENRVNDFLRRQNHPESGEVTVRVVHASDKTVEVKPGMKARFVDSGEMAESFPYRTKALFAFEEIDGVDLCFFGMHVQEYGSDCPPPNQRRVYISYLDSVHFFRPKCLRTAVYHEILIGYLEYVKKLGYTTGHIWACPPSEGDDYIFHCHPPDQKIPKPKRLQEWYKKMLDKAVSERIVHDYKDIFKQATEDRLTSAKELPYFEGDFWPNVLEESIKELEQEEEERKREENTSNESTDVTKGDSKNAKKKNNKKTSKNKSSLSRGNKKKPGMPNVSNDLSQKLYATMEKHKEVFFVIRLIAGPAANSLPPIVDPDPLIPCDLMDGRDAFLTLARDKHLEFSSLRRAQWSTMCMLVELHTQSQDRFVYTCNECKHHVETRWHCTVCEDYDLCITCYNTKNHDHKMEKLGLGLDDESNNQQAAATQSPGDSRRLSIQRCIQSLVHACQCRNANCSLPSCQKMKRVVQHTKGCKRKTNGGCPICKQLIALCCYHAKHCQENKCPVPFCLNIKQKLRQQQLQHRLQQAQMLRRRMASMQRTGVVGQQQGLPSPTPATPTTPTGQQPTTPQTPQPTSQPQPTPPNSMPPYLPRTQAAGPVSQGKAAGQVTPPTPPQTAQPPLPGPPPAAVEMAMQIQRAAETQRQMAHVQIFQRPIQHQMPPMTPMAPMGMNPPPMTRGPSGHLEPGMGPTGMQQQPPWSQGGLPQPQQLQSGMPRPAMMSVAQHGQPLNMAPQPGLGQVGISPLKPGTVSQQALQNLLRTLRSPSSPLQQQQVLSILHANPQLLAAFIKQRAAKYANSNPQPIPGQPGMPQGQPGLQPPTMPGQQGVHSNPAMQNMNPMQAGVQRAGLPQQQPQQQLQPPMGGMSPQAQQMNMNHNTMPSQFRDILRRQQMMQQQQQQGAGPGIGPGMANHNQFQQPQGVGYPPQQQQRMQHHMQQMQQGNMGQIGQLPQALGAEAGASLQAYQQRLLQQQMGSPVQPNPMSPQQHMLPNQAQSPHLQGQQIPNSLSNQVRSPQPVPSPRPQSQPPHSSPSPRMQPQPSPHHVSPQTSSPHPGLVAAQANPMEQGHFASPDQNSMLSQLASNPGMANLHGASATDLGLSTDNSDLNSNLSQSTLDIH

[4] = target: T2, Bromodomain-containing protein 4 (Homo sapiens, UniProt O60885); experiment: Inhibition of BRD4 bromodomain 2 (332 to 460 residues) (unknown origin) extracted from Escherichia coli […] codon plus RIL cells incubated for 4 hrs by fluorescence anisotropy
[5] = target: T2, Bromodomain-containing protein 4; experiment: Inhibition of BRD4 bromodomain 1 (44 to 168 residues) (unknown origin) extracted from Escherichia coli […] codon plus RIL cells incubated for 4 hrs by fluorescence anisotropy

T1 sequence (P25440 whole entry, the tested form may be a part): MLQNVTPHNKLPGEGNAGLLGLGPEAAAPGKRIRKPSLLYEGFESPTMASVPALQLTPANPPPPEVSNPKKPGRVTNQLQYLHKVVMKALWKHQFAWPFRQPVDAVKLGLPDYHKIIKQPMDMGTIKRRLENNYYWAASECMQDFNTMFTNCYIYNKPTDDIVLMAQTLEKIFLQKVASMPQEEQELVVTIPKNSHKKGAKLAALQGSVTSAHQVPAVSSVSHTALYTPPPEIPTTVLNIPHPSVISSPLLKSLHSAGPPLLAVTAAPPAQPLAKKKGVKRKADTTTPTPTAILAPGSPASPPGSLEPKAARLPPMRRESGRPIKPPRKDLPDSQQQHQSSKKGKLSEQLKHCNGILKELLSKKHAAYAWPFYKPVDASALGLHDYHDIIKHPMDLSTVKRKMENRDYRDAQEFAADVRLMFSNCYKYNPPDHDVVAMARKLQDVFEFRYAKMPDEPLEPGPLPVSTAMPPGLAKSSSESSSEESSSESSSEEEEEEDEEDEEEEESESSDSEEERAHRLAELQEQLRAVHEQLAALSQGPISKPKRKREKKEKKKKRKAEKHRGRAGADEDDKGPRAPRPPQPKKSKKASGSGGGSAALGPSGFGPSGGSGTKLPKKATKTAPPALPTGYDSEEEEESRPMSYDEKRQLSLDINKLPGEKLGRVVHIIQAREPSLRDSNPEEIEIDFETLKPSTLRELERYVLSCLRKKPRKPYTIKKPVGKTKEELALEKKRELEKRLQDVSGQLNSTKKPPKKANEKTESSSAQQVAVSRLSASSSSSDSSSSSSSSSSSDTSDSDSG

IC50 [1] [nM] | IC50 [2] [nM] | IC50 [3] [nM] | IC50 [4] [nM] | IC50 [5] [nM] | Compound
50.5 | 291 | > 1000 |  |  | Cc1cc(Nc2nn(C)c3ccccc23)nc(Nc2ccc3c(c2)N(C(C)C)[C@H](C)C(=O)N3C)n1
 |  |  | 2070 | 504 | CCc1cc(Nc2cccc(Cl)c2)nc(Nc2ccc3c(c2)N(C(C)C)[C@H](C)C(=O)N3C)n1
29.3 | 302 | > 1000 |  |  | CCc1cc(Nc2nn(C)c3ccccc23)nc(Nc2ccc3c(c2)N(C(C)C)[C@H](C)C(=O)N3C)n1
31.8 | 233 | > 1000 |  |  | CC(C)N1c2cc(Nc3nccc(Nc4nn(C)c5ccccc45)n3)ccc2N(C)C(=O)[C@H]1C
